In ChEMBL document CHEMBL4049435, “Development of a Series of Kynurenine 3-Monooxygenase Inhibitors Leading to a Clinical Candidate for the Treatment of Acute Pancreatitis” (J Med Chem, 2017):
pIC50, pKi: −log10 of the molar value.

Experiments:
[1] = Half life of the compound at pH 6 under oxidative condition; assay type: physicochemical
[2] = Clearance in Han-Wistar rat blood at 1 mg/kg, iv by LC-MS/MS analysis; assay type: ADME, organism-based; settings: whole blood
[3] = Stability of the compound in presence of light measured after 12 hrs; assay type: physicochemical; settings: read-out: Stability
[4] = Protein binding in human plasma; assay type: ADME, cell-free; settings: read-out: PPB (converted)
[5] = Protein binding in Han-Wistar rat plasma at 1 mg/kg, iv by LC-MS/MS analysis; assay type: ADME, organism-based; settings: read-out: PPB (converted)
[6] = Half life in Han-Wistar rat at 1 mg/kg, iv by LC-MS/MS analysis; assay type: ADME, organism-based; settings: in vivo
[7] = Volume of distribution at steady state in Han-Wistar rat at 1 mg/kg, iv by LC-MS/MS analysis; assay type: ADME, organism-based; settings: in vivo, read-out: Vdss
serum albumin = serum albumin (Homo sapiens, UniProt P02768); test: Binding affinity to human serum albumin by HPLC analysis; assay type: ADME; settings: read-out: PB (converted)
serum albumin, sequence (P02768 whole entry): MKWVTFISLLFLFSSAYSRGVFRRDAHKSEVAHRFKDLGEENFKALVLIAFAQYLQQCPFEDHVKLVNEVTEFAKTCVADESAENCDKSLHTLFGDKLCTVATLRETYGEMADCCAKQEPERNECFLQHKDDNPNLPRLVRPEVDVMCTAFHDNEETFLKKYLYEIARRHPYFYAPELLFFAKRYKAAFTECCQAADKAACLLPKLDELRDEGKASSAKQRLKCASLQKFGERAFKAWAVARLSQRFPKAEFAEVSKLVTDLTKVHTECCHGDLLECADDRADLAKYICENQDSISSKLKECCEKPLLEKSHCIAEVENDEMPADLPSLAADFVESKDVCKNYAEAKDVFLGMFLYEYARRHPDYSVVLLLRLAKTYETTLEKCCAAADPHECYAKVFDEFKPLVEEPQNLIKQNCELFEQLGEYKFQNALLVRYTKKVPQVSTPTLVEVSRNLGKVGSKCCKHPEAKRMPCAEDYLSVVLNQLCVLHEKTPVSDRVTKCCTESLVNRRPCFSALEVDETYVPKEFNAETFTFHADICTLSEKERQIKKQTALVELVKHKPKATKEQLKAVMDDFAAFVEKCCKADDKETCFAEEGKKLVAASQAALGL

[8] = Lipophilicity, log D of the compound at pH 7.4 by RP-HPLC analysis; assay type: physicochemical; settings: buffer
[9] = target: T1, Kynurenine 3-monooxygenase (Homo sapiens, UniProt O15229)
T1 sequence (O15229 whole entry): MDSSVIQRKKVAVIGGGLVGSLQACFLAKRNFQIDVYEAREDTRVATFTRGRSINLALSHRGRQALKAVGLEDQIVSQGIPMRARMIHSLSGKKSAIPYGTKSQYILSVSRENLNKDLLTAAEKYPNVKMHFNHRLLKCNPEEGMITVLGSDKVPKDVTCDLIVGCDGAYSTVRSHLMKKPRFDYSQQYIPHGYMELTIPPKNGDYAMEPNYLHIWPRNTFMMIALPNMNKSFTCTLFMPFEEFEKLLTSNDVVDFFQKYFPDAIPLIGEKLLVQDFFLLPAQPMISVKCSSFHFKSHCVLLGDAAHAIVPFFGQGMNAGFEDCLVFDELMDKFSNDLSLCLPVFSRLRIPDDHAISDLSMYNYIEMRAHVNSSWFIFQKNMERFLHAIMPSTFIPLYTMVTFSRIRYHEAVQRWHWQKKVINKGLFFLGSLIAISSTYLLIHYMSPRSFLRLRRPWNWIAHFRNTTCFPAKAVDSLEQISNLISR

[10] = Solubility of the compound in saline measured after 24 hrs; assay type: physicochemical
[11] = target: T1, Kynurenine 3-monooxygenase; test: Inhibition of full length human GST-tagged KMO expressed in baculovirus infected Sf9 insect cell membranes using kynurenine as substrate measured after 1 hr by RapidFire high-throughput mass spectrometric analysis
[12] = Permeability of the compound by PAMPA; assay type: physicochemical; settings: read-out: permeability
Plasma [13] = test: (§1) Unbound fraction in rat plasma at […], iv administered as bolus dose followed by […], iv infusion for 3 hrs; assay type: ADME, organism-based; settings: in vivo
Plasma [14] = test: as §1; assay type: ADME, organism-based; settings: in vivo; remark: listed apart in the source
[15] = Half life in Beagle dog at 1 mg/kg, iv by LC-MS/MS analysis; assay type: ADME, organism-based, Canis lupus familiaris; settings: in vivo
Plasma [16] = test: as §1; assay type: ADME, organism-based; settings: in vivo; remark: listed apart in the source
[17] = Clearance in Beagle dog blood at 1 mg/kg, iv by LC-MS/MS analysis; assay type: ADME, organism-based, Canis lupus familiaris; settings: whole blood
[18] = target: Kynurenine 3-monooxygenase (Rattus norvegicus, UniProt O88867); test: Inhibition of rat KMO expressed in HEK293 cells using kynurenine as substrate measured after 20 hrs by LC-MS/MS analysis; assay type: cell-based; settings: read-out: Ki(app)
Kynurenine 3-monooxygenase (Rattus norvegicus, UniProt O88867), sequence (O88867 whole entry): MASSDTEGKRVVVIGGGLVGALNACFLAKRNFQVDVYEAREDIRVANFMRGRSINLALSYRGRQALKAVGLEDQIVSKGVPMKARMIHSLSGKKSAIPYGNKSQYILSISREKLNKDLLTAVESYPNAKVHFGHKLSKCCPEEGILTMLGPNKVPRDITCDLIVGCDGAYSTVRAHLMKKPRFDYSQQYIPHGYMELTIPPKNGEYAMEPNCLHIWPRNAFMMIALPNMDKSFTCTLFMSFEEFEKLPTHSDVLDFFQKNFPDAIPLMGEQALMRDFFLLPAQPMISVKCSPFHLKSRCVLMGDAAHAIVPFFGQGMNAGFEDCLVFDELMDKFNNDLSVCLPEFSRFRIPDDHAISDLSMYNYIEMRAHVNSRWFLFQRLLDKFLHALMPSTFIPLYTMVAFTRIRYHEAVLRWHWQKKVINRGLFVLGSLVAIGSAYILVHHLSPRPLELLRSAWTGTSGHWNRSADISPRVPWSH

[19] = Volume of distribution in Beagle dog at 1 mg/kg, iv by LC-MS/MS analysis; assay type: ADME, organism-based, Canis lupus familiaris; settings: in vivo

Compound	half-life [1] [h]	clearance [2] [mL/min/kg]	remaining at 12 h [3] [%]	fraction unbound [4]	fraction unbound [5]	half-life [6] [h]	Vd [7] [L/kg]	fraction unbound (serum albumin)	logD [8]	pIC50 [9]	solubility at 24 h [10] [µg/mL]	pIC50 [11]	Papp [12] [×10⁻⁶ cm/s]	Cp(f) (Plasma [13]) [nM]	Cp(f) (Plasma [14]) [nM]	half-life [15] [h]	Cp(f) (Plasma [16]) [nM]	clearance [17] [mL/min/kg]	pKi [18]	Vd [19] [L/kg]
Cc1cc2oc(=O)n(CCC(=O)O)c2cc1Cl	> 1000	4.7	100	0.024	0.045	3.7	0.52													
C[C@@H](Oc1cc2oc(=O)n(CCC(=O)O)c2cc1Cl)c1ccccn1	> 1000	16.8	99.2		0.215	5.6	2.96													
Cc1ccc([C@@H](C)Oc2cc3onc(CCC(=O)O)c3cc2Cl)nn1	> 1000	12	85.2	0.071	0.067	1.5	1.1	0.108	2.97	8.50										
NC(CO)(CO)CO.O=C(O)CCn1c(=O)oc2cc(OC3CC3)c(Cl)cc21				0.031				0.057	1.64	5.90	> 2400	8.50	1.5							
NC(CO)(CO)CO.O=C(O)CCn1c(=O)oc2cc(OCC3CC3)c(Cl)cc21				0.04				0.038	2.09	5.80	> 2060	8.00	1.9							
Cc1ccc([C@@H](C)Oc2cc3onc(CCC(=O)O)c3cc2Cl)nc1	> 1000	1.1	96.5		0.009	3.6	0.31													
C[C@@H](Oc1cc2onc(CCC(=O)O)c2cc1Cl)c1ccccn1 [GSK-065]	> 1000	0.8	97.7		0.022	6.6	0.42							50	3	5.8	405	0.93	7.35	0.36
O=C(O)CCn1c(=O)oc2cc(Cl)c(Cl)cc21	334	4.3	41	0.018	0.083	4.3	0.28	0.037	1.61				2.4							
C[C@@H](Oc1cc2onc(CCC(=O)O)c2cc1Cl)c1ccccn1.NC(CO)(CO)CO				0.022					1.99		> 7440									
C[C@@H](Oc1cc2oc(=O)n(CCC(=O)O)c2cc1Cl)c1ccccn1.NC(CO)(CO)CO				0.119				0.067	1.71		> 9500		0.3 to 2							
Cc1ccc([C@@H](C)Oc2cc3onc(CCC(=O)O)c3cc2Cl)nc1.NC(CO)(CO)CO				0.003				0.016	2.42		> 860									
NC(CO)(CO)CO.O=C(O)CCn1c(=O)oc2cc(OCc3ccccn3)c(Cl)cc21				0.074				0.126	1.32	5.30		8.50	1.1							
